Assay results from patent US10131652B2, “Pyrimidinyloxy benzene derivatives as herbicides” (E. I. DU PONT DE NEMOURS AND COMPANY, priority 2014, dated 2018).
Read-outs that look alike come from different tables or passages of the source.

Experiments:
Type in all cases: in vivo
[1] = tested on: chickweed (common chickweed, Stellaria media); test: Test E pre-/postemergence plant response; details: scale 0 to 100, read-out: Plant response rating, Chickweed; for pest or weed control at 16 g/ha: 16 g ai/ha; for pest or weed control at 31 g/ha: 31 g ai/ha; for pest or weed control at 62 g/ha: 62 g ai/ha; for pest or weed control at 125 g/ha: 125 g ai/ha
Outline: (§1)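 Pre-emergence: seeds sown in silt loam soil and sprayed with test chemicals in a non-phytotoxic solvent/surfactant mix. Post-emergence: plants at 2–18 cm (1- to 4-leaf stage) in peat/vermiculite medium treated with the same formulation. Visual rating versus controls after 7–21 days, 0 (no effect) to 100 (complete control).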

[2] = tested on: field violet (Viola arvensis); test: Test E pre-/postemergence plant response; details: scale 0 to 100, read-out: Plant response rating, Field Violet; for pest or weed control at 16 g/ha: 16 g ai/ha; for pest or weed control at 31 g/ha: 31 g ai/ha; for pest or weed control at 62 g/ha: 62 g ai/ha; for pest or weed control at 125 g/ha: 125 g ai/ha
Outline: as §1

[3] = tested on: galium (catchweed bedstraw, Galium aparine); test: Test E pre-/postemergence plant response; details: scale 0 to 100, read-out: Plant response rating, Galium; for pest or weed control at 16 g/ha: 16 g ai/ha; for pest or weed control at 31 g/ha: 31 g ai/ha; for pest or weed control at 62 g/ha: 62 g ai/ha; for pest or weed control at 125 g/ha: 125 g ai/ha
Outline: as §1

[4] = tested on: green foxtail (Setaria viridis); test: Test E pre-/postemergence plant response; details: scale 0 to 100, read-out: Plant response rating, Foxtail, Green; for pest or weed control at 16 g/ha: 16 g ai/ha; for pest or weed control at 31 g/ha: 31 g ai/ha; for pest or weed control at 62 g/ha: 62 g ai/ha; for pest or weed control at 125 g/ha: 125 g ai/ha
Outline: as §1

[5] = tested on: barnyardgrass (Echinochloa crus-galli); test: Test G flooded paddy rice/weed plant response; details: Flood, 21 days, scale 0 to 100 (0 no effect, 100 complete control)
Text: (§2) Three plastic pots (ca. 16-cm diameter) per rate were partially filled with sterilized Tama silt loam soil comprising a 35:50:15 ratio of sand, silt and clay and 2.6% organic matter. Separate plantings for each of the three pots were as follows. Seeds from the U.S. of monochoria (Monochoria vaginalis), small-flower umbrella sedge (Cyperus difformis), hardstem bulrush (Scirpus juncoides), and redstem (purple redstem, Ammannia coccinea), were planted into one 16-cm pot for each rate. Seeds from the U.S. of rice flatsedge (Cyperus iria), bearded sprangletop (Leptochloa fascicularis), one stand of 9 or 10 water seeded rice seedlings (Indica rice, Oryza sativa), and two stands of 3 or 4 transplanted rice seedlings (Oryza sativa cv. ‘Japonica—M202’) were planted into one 16-cm pot for each rate. Seeds from the U.S. of bamyardgrass (Echinochloa crus-galli), and late watergrass (Echinochloa oryzicola) were planted into one 16-cm pot for each rate. Plantings were sequential so that crop and weed species were at the 2.0 to 2.5-leaf stage at time of treatment.
(§3) Potted plants were grown in a greenhouse with day/night temperature settings of 30/27° C., and supplemental balanced lighting was provided to maintain a 16-hour photoperiod. Test pots were maintained in the greenhouse until test completion.
(§4) At time of treatment, test pots were flooded to 3 cm above the soil surface, treated by application of test compounds directly to the paddy water, and then maintained at that water depth for the duration of the test. Effects of treatments on rice and weeds were visually evaluated by comparison to untreated controls after 21 days. Plant response ratings, summarized in Table G, are based on a scale of 0 to 100 where 0 is no effect and 100 is complete control. A dash (-) response means no test result.

[6] = tested on: bearded sprangletop (Leptochloa fascicularis); test: Test G flooded paddy rice/weed plant response; details: Flood, 21 days, scale 0 to 100 (0 no effect, 100 complete control)
Text: as §2, §3, §4

[7] = tested on: late watergrass (Echinochloa oryzicola); test: Test G flooded paddy rice/weed plant response; details: Flood, 21 days, scale 0 to 100 (0 no effect, 100 complete control)
Text: as §2, §3, §4

[8] = tested on: redstem (purple redstem, Ammannia coccinea); test: Test G flooded paddy rice/weed plant response; details: Flood, 21 days, scale 0 to 100 (0 no effect, 100 complete control)
Text: as §2, §3, §4

[9] = tested on: rice flatsedge (Cyperus iria); test: Test G flooded paddy rice/weed plant response; details: Flood, 21 days, scale 0 to 100 (0 no effect, 100 complete control)
Text: as §2, §3, §4

[10] = tested on: small-flower umbrella sedge (Cyperus difformis); test: Test G flooded paddy rice/weed plant response; details: Flood, 21 days, scale 0 to 100 (0 no effect, 100 complete control)
Text: as §2, §3, §4

[11] = tested on: transplanted rice seedlings (Oryza sativa cv. ‘Japonica—M202’); test: Test G flooded paddy rice/weed plant response; details: Flood, 21 days, scale 0 to 100 (0 no effect, 100 complete control)
Text: as §2, §3, §4

FC(F)c1cc(-c2ccccc2Oc2ncc(Cl)cn2)no1 [Compound 35, 5-chloro-2-[2-[5-(difluoromethyl)-3-isoxazolyl]phenoxy]pyrimidine]
pest or weed control at 16 g/ha ([1]; post-emergence, Postemergence): 65% | pest or weed control at 31 g/ha ([1]; post-emergence, Postemergence): 75% | pest or weed control at 62 g/ha ([1]; post-emergence, Postemergence): 75% | pest or weed control at 125 g/ha ([1]; post-emergence, Postemergence): 100% | pest or weed control at 16 g/ha ([1]; pre-emergence, Preemergence): 55% | pest or weed control at 31 g/ha ([1]; pre-emergence, Preemergence): 100% | pest or weed control at 62 g/ha ([1]; pre-emergence, Preemergence): 95% | pest or weed control at 125 g/ha ([1]; pre-emergence, Preemergence): 100% | pest or weed control at 16 g/ha ([2]; post-emergence, Postemergence): 60% | pest or weed control at 31 g/ha ([2]; post-emergence, Postemergence): 65% | pest or weed control at 62 g/ha ([2]; post-emergence, Postemergence): 75% | pest or weed control at 125 g/ha ([2]; post-emergence, Postemergence): 75% | pest or weed control at 16 g/ha ([2]; pre-emergence, Preemergence): 15% | pest or weed control at 31 g/ha ([2]; pre-emergence, Preemergence): 70% | pest or weed control at 62 g/ha ([2]; pre-emergence, Preemergence): 90% | pest or weed control at 125 g/ha ([2]; pre-emergence, Preemergence): 100% | pest or weed control at 16 g/ha ([3]; post-emergence, Postemergence): 70% | pest or weed control at 31 g/ha ([3]; post-emergence, Postemergence): 80% | pest or weed control at 62 g/ha ([3]; post-emergence, Postemergence): 75% | pest or weed control at 125 g/ha ([3]; post-emergence, Postemergence): 85% | pest or weed control at 16 g/ha ([3]; pre-emergence, Preemergence): 25% | pest or weed control at 31 g/ha ([3]; pre-emergence, Preemergence): 55% | pest or weed control at 62 g/ha ([3]; pre-emergence, Preemergence): 100% | pest or weed control at 125 g/ha ([3]; pre-emergence, Preemergence): 100% | pest or weed control at 16 g/ha ([4]; post-emergence, Postemergence): 20% | pest or weed control at 31 g/ha ([4]; post-emergence, Postemergence): 35% | pest or weed control at 62 g/ha ([4]; post-emergence, Postemergence): 55% | pest or weed control at 125 g/ha ([4]; post-emergence, Postemergence): 55% | pest or weed control at 16 g/ha ([4]; pre-emergence, Preemergence): 5% | pest or weed control at 31 g/ha ([4]; pre-emergence, Preemergence): 90% | pest or weed control at 62 g/ha ([4]; pre-emergence, Preemergence): 90% | pest or weed control at 125 g/ha ([4]; pre-emergence, Preemergence): 100% | Plant response rating, Barnyardgrass ([5]; 32 g ai/ha): 30 | Plant response rating, Barnyardgrass ([5]; 64 g ai/ha): 45 | Plant response rating, Barnyardgrass ([5]; 125 g ai/ha): 100 | Plant response rating, Barnyardgrass ([5]; 250 g ai/ha): 100 | Plant response rating, Sprangletop, Brdd. ([6]; 32 g ai/ha): 60 | Plant response rating, Sprangletop, Brdd. ([6]; 64 g ai/ha): 100 | Plant response rating, Sprangletop, Brdd. ([6]; 125 g ai/ha): 100 | Plant response rating, Sprangletop, Brdd. ([6]; 250 g ai/ha): 100 | Plant response rating, Watergrass, Late ([7]; 32 g ai/ha): 0 | Plant response rating, Watergrass, Late ([7]; 64 g ai/ha): 30 | Plant response rating, Watergrass, Late ([7]; 125 g ai/ha): 40 | Plant response rating, Watergrass, Late ([7]; 250 g ai/ha): 100 | Plant response rating, Redstem ([8]; 32 g ai/ha): 0 | Plant response rating, Redstem ([8]; 64 g ai/ha): 85 | Plant response rating, Redstem ([8]; 125 g ai/ha): 90 | Plant response rating, Redstem ([8]; 250 g ai/ha): 100 | Plant response rating, Flatsedge, Rice ([9]; 32 g ai/ha): 100 | Plant response rating, Flatsedge, Rice ([9]; 64 g ai/ha): 100 | Plant response rating, Flatsedge, Rice ([9]; 125 g ai/ha): 100 | Plant response rating, Flatsedge, Rice ([9]; 250 g ai/ha): 100 | Plant response rating, Sedge, Umbrella ([10]; 32 g ai/ha): 0 | Plant response rating, Sedge, Umbrella ([10]; 64 g ai/ha): 98 | Plant response rating, Sedge, Umbrella ([10]; 125 g ai/ha): 100 | Plant response rating, Sedge, Umbrella ([10]; 250 g ai/ha): 100 | Plant response rating, Rice, Transplanted ([11]; 32 g ai/ha): 15 | Plant response rating, Rice, Transplanted ([11]; 64 g ai/ha): 30 | Plant response rating, Rice, Transplanted ([11]; 125 g ai/ha): 45 | Plant response rating, Rice, Transplanted ([11]; 250 g ai/ha): 100
